This note sets out measurements from patent US20230174538A1, “Tricyclic heterocycles” (Merck Patent GmbH, priority 2020, published 2023).

The test relates to YAP-TEAD interaction. As to the kind of experiment: SK-HEP-1 reporter assay (8xTEAD responsive elements driving NanoLuc luciferase). Particulars: Homo sapiens, SK-HEP1, SK-HEP-1 reporter assay. It is filed as cell-based. Here is the method:
To identify inhibitors of YAP-TEAD interaction, 8×TEAD responsive elements driving the NanoLuc® luciferase gene were stably integrated into SK-HEP-1 cells (ECACC #: 91091816).
For the assay, cells were treated in duplicates with the test compounds in a 10-point dose, with the top concentration starting at 30 μM (final concentration in assay). After a 24 hour incubation at 37° C., 95% rH, and 5% CO2, a luciferase substrate/lysis reagent mix (NanoGlo™, Promega) was added to the cells, allowing the quantification of cellular luciferase activity.
Cell Media: The cells were cultured in the following media: MEM, +10% FBS, +1× GlutaMAX, +1 mM Sodium-Pyruvate, +100 μM Non-essential amino acids, +0.1 mg/ml Hygromycin. The media used for the assay was: MEM (w/o Phenol Red), +10% FBS, +1× GlutaMAX, +1 mM Sodium-Pyruvate, +100 μM Non-essential amino acids, +0.5% Pen/Strep
Reagents: The reagents used are listed below:
Cell culture: The cells were examined using an inverted microscope to check for health and cell density. To dissociate adherent cells, the monolayer of cells was washed once with pre-warmed PBS. After removing the PBS, 3 ml pre-warmed Accutase® was added to a F75 flask, dispersed evenly and the flask was allowed to sit in incubator for ˜4-5 minutes.
When a single cell suspension was obtained, 7 ml of prewarmed growth media was added and resuspended with the cells. The cell suspension was transferred to a sterile 15 ml conical centrifuge tube, and spun for 5 min at 300×g, RT. The supernatant was discarded and the pellet was resuspended in 10 ml of pre-warmed growth media.
The total cell count was determined, and 20 μl of the desired cell number was added to each well of a 384 well plate using a Multidrop Combi. The plates were then incubated for 24 hours at 37° C., 95% rH, and 5% CO2.
Compound treatment: 24 hours after seeding, the cells were treated with compounds.
A 1:333 dilution of compounds, diluted in DMSO, was made to get a final concentration of 0.3% DMSO per well. To transfer the compounds to the assay plate, 120 nl was shot from Labcyte low dead volume plates to the cell plates containing 20 μl media/well with the ECHO 555 liquid handling system.
After treatment, the cells were fed with 20 μl fresh pre-warmed assay media using a Multidrop combi.
The assay plates were then incubated for another 24 h at 37° C., 95% rH, and 5% CO2.
Luciferase readout: 24 h after treatment, the plates were taken out of the incubator and were allowed to equilibrate to RT. 30 μl of NanoGlo® reagent was added to the plates in the dark. Plates were shaken for 20 min on a Teleshake (˜1500 rpm) in the dark. The luminescence was then measured using an EnVision microplate reader. The IC50 values were generated using Genedata Screener®.
The molecule `Cn1cc2c3cc(C(=O)NC(CO)c4ccccn4)ccc3n(-c3ccc(C(F)(F)F)cc3)c2n1` (racemic) [Example 29, N-[2-hydroxy-1-(pyridin-2-yl)ethyl]-2-methyl-8-[4-(trifluoromethyl)phenyl]-2H,8H-pyrazolo[3,4-b]indole-5-carboxamide] returned a concentration for half-maximal inhibition (IC50) of 0.1 to 10 µM. Regarding `Cn1cc2c3cc(C(=O)N[C@@H]4C[C@H](O)c5ccccc54)ccc3n(-c3ccc(C(F)(F)F)cc3)c2n1` (relative stereo) [Example B1, N-[(1R,3S)-3-hydroxy-2,3-dihydro-1H-inden-1-yl]-2-methyl-8-[4-(trifluoromethyl)phenyl]-2H,8H-pyrazolo[3,4-b]indole-5-carboxamide], the IC50 was 0.1 to 10 µM. In turn, `Cn1cc2c3cc(C(=O)N[C@@H]4COC5(CCC5)[C@H]4O)ccc3n(-c3ccc(C(F)(F)F)cc3)c2n1` (relative stereo) [Example B23, N-[(7R,8S)-8-hydroxy-5-oxaspiro[3.4]octan-7-yl]-2-methyl-8-[4-(trifluoromethyl)phenyl]-2H,8H-pyrazolo[3,4-b]indole-5-carboxamide] displayed an IC50 of 0.1 to 10 µM. `Cn1cc2c3cc(C(=O)N[C@@H]4C[C@H](O)[C@H]4n4cccn4)ccc3n(-c3ccc(C(F)(F)F)cc3)c2n1` (relative stereo) [Example B26, N-[(1R,2S,3S)-3-hydroxy-2-(1H-pyrazol-1-yl)cyclobutyl]-2-methyl-8-[4-(trifluoromethyl)phenyl]-2H,8H-pyrazolo[3,4-b]indole-5-carboxamide]: the IC50 lay within 0.1 to 10 µM. In turn, `Cn1cc2c3cc(C(=O)N[C@@H]4[C@H](O)[C@@H]5CCC[C@@H]54)ccc3n(-c3ccc(C(F)(F)F)cc3)c2n1` (relative stereo) [Example B43, N-[(1R,5S,6S,7R)-7-hydroxy-bicyclo[3.2.0]heptan-6-yl]-2-methyl-8-[4-(trifluoromethyl)phenyl]-2H,8H-pyrazolo[3,4-b]indole-5-carboxamide] gave an IC50 of 0.1 to 10 µM. The molecule `Cn1cc2c3cc(C(=O)N[C@H]4c5ccccc5C[C@@H]4O)ccc3n(-c3ccc(C(F)(F)F)cc3)c2n1` (single isomer, unassigned) [Example B2] came in with an IC50 of 0.1 to 10 µM. For `CO[C@H]1C[C@@H](CCO)N(C(=O)c2ccc3c(c2)c2cn(C)nc2n3-c2ccc(C(F)(F)F)cc2)C1` (single isomer, unassigned) [Example B4], the IC50 was over 10 µM.

With `Cn1cc2c3cc(C(=O)N4CCC[C@@H]4CCCO)ccc3n(-c3ccc(C(F)(F)F)cc3)c2n1` (single isomer, unassigned) [Example B18], the IC50 was 0.1 to 10 µM. The same measure for `Cn1cc2c3cc(C(=O)N4[C@H](CO)C[C@@H]5CCCC[C@@H]54)ccc3n(-c3ccc(C(F)(F)F)cc3)c2n1` (single isomer, unassigned) [Example B32]: 0.1 to 10 µM; for `Cn1cc2c3cc(C(=O)NCCc4cn[nH]c4)ccc3n(-c3ccc(C(F)(F)F)cc3)c2n1` [B100^]: 0.001 to 0.01 µM. Then `Cc1cc(CC(C)NC(=O)c2ccc3c(c2)c2cn(C)nc2n3-c2ccc(C(F)(F)F)cc2)n[nH]1` (centres unmarked) [B101^], with over 10 µM; and `Cn1cc2c3cc(C(=O)NCc4c(C5CC5)cnn4C)ccc3n(-c3ccc(C(F)(F)F)cc3)c2n1` [B102^], with 0.01 to 0.1 µM. `Cn1cc2c3cc(C(=O)NCC4(n5cncn5)CC4)ccc3n(-c3ccc(C(F)(F)F)cc3)c2n1` [B103^] returned an IC50 of 0.1 to 10 µM.

For `Cn1cc2c3cc(C(=O)NC4CN(c5ccncn5)C4)ccc3n(-c3ccc(C(F)(F)F)cc3)c2n1` [B104^], the IC50 is over 10 µM. The same measure for `CCn1cc(CCNC(=O)c2ccc3c(c2)c2cn(C)nc2n3-c2ccc(C(F)(F)F)cc2)nn1` [B105^]: 0.1 to 10 µM; for `Cc1ccnn1CC(C)CNC(=O)c1ccc2c(c1)c1cn(C)nc1n2-c1ccc(C(F)(F)F)cc1` (centres unmarked) [B106^]: over 10 µM; for `Cn1cc2c3cc(C(=O)NCCn4ccc(C5CC5)n4)ccc3n(-c3ccc(C(F)(F)F)cc3)c2n1` [B107^]: 0.1 to 10 µM.

On to `Cn1cc2c3cc(C(=O)N4CCC45CCCOCC5)ccc3n(-c3ccc(C(F)(F)F)cc3)c2n1` (centres unmarked) [B108^], for which the IC50 is over 10 µM. Then `CC(NC(=O)c1ccc2c(c1)c1cn(C)nc1n2-c1ccc(C(F)(F)F)cc1)c1cnn(C2CC2)c1` (centres unmarked) [B109^], with over 10 µM; and `Cn1cc2c3cc(C(=O)NCCc4nncn4C4CC4)ccc3n(-c3ccc(C(F)(F)F)cc3)c2n1` [B110^], with over 10 µM; and `COCCC1CN(C(=O)c2ccc3c(c2)c2cn(C)nc2n3-c2ccc(C(F)(F)F)cc2)CCO1` (centres unmarked) [B111^], with over 10 µM.

In turn, `Cn1cc2c3cc(C(=O)NC4(CCF)CCOCC4)ccc3n(-c3ccc(C(F)(F)F)cc3)c2n1` [B112^] showed a concentration for half-maximal inhibition (IC50) of 0.1 to 10 µM. Turning to `Cn1cc2c3cc(C(=O)NCCc4cc(O)no4)ccc3n(-c3ccc(C(F)(F)F)cc3)c2n1` [B113^], the IC50 fell in the range of 0.1 to 10 µM. In the case of `Cn1cc2c3cc(C(=O)N[C@@H]4C[C@@H]5OCCC[C@@H]54)ccc3n(-c3ccc(C(F)(F)F)cc3)c2n1` [B114^], the IC50 is over 10 µM. The molecule `Cn1cc2c3cc(C(=O)NC(C4CC4)C4COCCO4)ccc3n(-c3ccc(C(F)(F)F)cc3)c2n1` (centres unmarked) [B115^] showed an IC50 of 0.1 to 10 µM.

`Cn1cc2c3cc(C(=O)NC[C@@H]4C[C@H]4C4CCOCC4)ccc3n(-c3ccc(C(F)(F)F)cc3)c2n1` [B116^]: the 50% inhibitory concentration (IC50) was over 10 µM. Regarding `Cn1cc2c3cc(C(=O)NC4(c5ncon5)CCC4)ccc3n(-c3ccc(C(F)(F)F)cc3)c2n1` [B117^], the IC50 lay within 0.01 to 0.1 µM. `Cc1ncncc1[C@@H](C)NC(=O)c1ccc2c(c1)c1cn(C)nc1n2-c1ccc(C(F)(F)F)cc1` [B118^] yielded an IC50 of 0.1 to 10 µM. Take `CCn1ncc(CNC(=O)c2ccc3c(c2)c2cn(C)nc2n3-c2ccc(C(F)(F)F)cc2)c1F` [B119^]: the IC50 is over 10 µM. For the molecule `CN(C)c1noc(CCNC(=O)c2ccc3c(c2)c2cn(C)nc2n3-c2ccc(C(F)(F)F)cc2)n1` [B120^], the IC50 was 0.1 to 10 µM. Regarding `Cc1nc(CCCNC(=O)c2ccc3c(c2)c2cn(C)nc2n3-c2ccc(C(F)(F)F)cc2)n[nH]1` [B121^], the IC50 lay within 0.1 to 10 µM. The molecule `Cn1cc2c3cc(C(=O)N[C@@H]4CCO[C@H]4c4cc[nH]n4)ccc3n(-c3ccc(C(F)(F)F)cc3)c2n1` [B122^] displayed an IC50 of 0.01 to 0.1 µM. The same measure for `CCCc1nc(C)c(CNC(=O)c2ccc3c(c2)c2cn(C)nc2n3-c2ccc(C(F)(F)F)cc2)o1` [B124^]: 0.01 to 0.1 µM; for `Cn1cc2c3cc(C(=O)NCCc4noc(C5CC5)n4)ccc3n(-c3ccc(C(F)(F)F)cc3)c2n1` [B125^]: 0.1 to 10 µM. Then `Cn1cc2c3cc(C(=O)NC4(c5ccncc5F)CC4)ccc3n(-c3ccc(C(F)(F)F)cc3)c2n1` [B127^], with 0.1 to 10 µM. On to `Cn1cc2c3cc(C(=O)NC[C@@H]4C[C@H]4c4ccco4)ccc3n(-c3ccc(C(F)(F)F)cc3)c2n1` [B128^], for which the IC50 was in the range of 0.1 to 10 µM.

For the molecule `CCn1cnnc1CNC(=O)c1ccc2c(c1)c1cn(C)nc1n2-c1ccc(C(F)(F)F)cc1` [B129^], the IC50 is 0.1 to 10 µM.

In turn, `Cn1cc2c3cc(C(=O)N4CC(CO)(n5cccn5)C4)ccc3n(-c3ccc(C(F)(F)F)cc3)c2n1` [B130^] showed an IC50 of 0.1 to 10 µM. For `CO[C@@H]1CCOC[C@H]1NC(=O)c1ccc2c(c1)c1cn(C)nc1n2-c1ccc(C(F)(F)F)cc1` [B131^], the IC50 was 0.1 to 10 µM. The same measure for `Cc1[nH]ncc1CCCNC(=O)c1ccc2c(c1)c1cn(C)nc1n2-c1ccc(C(F)(F)F)cc1` [B132^]: 0.1 to 10 µM; for `Cn1cc2c3cc(C(=O)NC4COCC4C4CC4)ccc3n(-c3ccc(C(F)(F)F)cc3)c2n1` (centres unmarked) [B133^]: 0.01 to 0.1 µM; for `Cn1cc2c3cc(C(=O)NC4(c5nnc[nH]5)CC4)ccc3n(-c3ccc(C(F)(F)F)cc3)c2n1` [B134^]: 0.1 to 10 µM.

In turn, `Cn1cc2c3cc(C(=O)N4CC(O)(c5ccsc5)C4)ccc3n(-c3ccc(C(F)(F)F)cc3)c2n1` [B135^] registered an IC50 of 0.1 to 10 µM. `COc1cc(CN(C)C(=O)c2ccc3c(c2)c2cn(C)nc2n3-c2ccc(C(F)(F)F)cc2)sn1` [B136^] showed a 50% inhibitory concentration (IC50) of over 10 µM. `CN(Cc1noc(C2CC2)n1)C(=O)c1ccc2c(c1)c1cn(C)nc1n2-c1ccc(C(F)(F)F)cc1` [B137^] gave a concentration for half-maximal inhibition (IC50) of over 10 µM.

As for `CCCn1ncnc1CNC(=O)c1ccc2c(c1)c1cn(C)nc1n2-c1ccc(C(F)(F)F)cc1` [B138^], the IC50 lay in the range of 0.1 to 10 µM. Turning to `Cn1cc2c3cc(C(=O)NC[C@H]4C[C@H](n5cncn5)C4)ccc3n(-c3ccc(C(F)(F)F)cc3)c2n1` [B140^], the IC50 is over 10 µM.
